Measured values as given in the supplement of paper PMC10307832.

Columns and labels:
Experiment in all cases: relative viability (nuclei count vs DMSO), 5 days (fraction); higher = more cells survive
[1] = compound: Cn1cnc2c(F)c(Nc3ccc(Br)cc3Cl)c(C(=O)NOCCO)cc21 [Selumetinib] + Cc1nc(NC(=O)N2CCC[C@H]2C(N)=O)sc1-c1ccnc(C(C)(C)C(F)(F)F)c1 [Alpelisib] (partner 2 µM)
Method in brief: (§1)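 Relative viability is defined as nuclei in treated wells over nuclei in vehicle wells. Duplicate plates were run and medians reported. Lung cancer cell lines in 1536-well plates were dosed by pin tool one day after seeding, with one drug or with a fixed anchor-drug dose plus five library-drug doses (not always all listed) in √10 steps, and nuclei were counted after 5 days.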

[2] = compound: CC1(C)CCC(CN2CCN(c3ccc(C(=O)NS(=O)(=O)c4ccc(NCC5CCOCC5)c([N+](=O)[O-])c4)c(Oc4cnc5[nH]ccc5c4)c3)CC2)=C(c2ccc(Cl)cc2)C1 [Venetoclax] + COc1cccc2cc(-c3nc([C@H]4CC[C@H](C(=O)O)CC4)n4ncnc(N)c34)[nH]c12 [OSI-027] (partner 0.5 µM)
Method in brief: as §1

[3] = compound: CC1(C)CCC(CN2CCN(c3ccc(C(=O)NS(=O)(=O)c4ccc(NCC5CCOCC5)c([N+](=O)[O-])c4)c(Oc4cnc5[nH]ccc5c4)c3)CC2)=C(c2ccc(Cl)cc2)C1 [Venetoclax] + Cc1cc(Nc2cc(N3CCN(C)CC3)nc(Sc3ccc(NC(=O)C4CC4)cc3)n2)n[nH]1 [Tozasertib] (partner 0.1 µM)
Method in brief: as §1

[4] = compound: CC1(C)CCC(CN2CCN(c3ccc(C(=O)NS(=O)(=O)c4ccc(NCC5CCOCC5)c([N+](=O)[O-])c4)c(Oc4cnc5[nH]ccc5c4)c3)CC2)=C(c2ccc(Cl)cc2)C1 [Venetoclax] + NC(=O)Nc1cc(-c2cccc(F)c2)sc1C(=O)N[C@H]1CCCNC1 [AZD7762] (partner 0.2 µM)
Method in brief: as §1

| Cell Line | relative viability ([1]; first compound 0.02 µM) | relative viability ([1]; first compound 0.06325 µM) | relative viability ([1]; first compound 0.2 µM) | relative viability ([1]; first compound 0.6325 µM) | relative viability ([2]; first compound 0.01 µM) | relative viability ([2]; first compound 0.03162 µM) | relative viability ([2]; first compound 0.1 µM) | relative viability ([2]; first compound 0.3162 µM) | relative viability ([2]; first compound 1 µM) | relative viability ([3]; first compound 0.01 µM) | relative viability ([3]; first compound 0.03162 µM) | relative viability ([3]; first compound 0.1 µM) | relative viability ([3]; first compound 0.3162 µM) | relative viability ([3]; first compound 1 µM) | relative viability ([4]; first compound 0.01 µM) | relative viability ([4]; first compound 0.03162 µM) | relative viability ([4]; first compound 0.1 µM) | relative viability ([4]; first compound 0.3162 µM) | relative viability ([4]; first compound 1 µM) |
| --- | --- | --- | --- | --- | --- | --- | --- | --- | --- | --- | --- | --- | --- | --- | --- | --- | --- | --- | --- |
| NCI-H23 | 0.628 | 0.589 | 0.438 | 0.358 | 0.592 | 0.625 | 0.525 | 0.683 | 0.439 | 0.492 | 0.347 | 0.368 | 0.323 | 0.418 | 0.198 | 0.268 | 0.279 | 0.262 | 0.199 |
| NCI-H441 | 0.775 | 0.754 | 0.656 | 0.647 | 0.569 | 0.566 | 0.608 | 0.575 | 0.553 | 0.587 | 0.603 | 0.86 | 0.676 | 0.507 | 1.14 | 1.27 | 1.05 | 1.4 | 1.09 |
| NCI-H2009 | 0.99 | 0.713 | 0.519 | 0.486 | 0.655 | 0.668 | 0.602 | 0.624 | 0.573 | 0.775 | 0.748 | 0.743 | 0.759 | 0.538 | – | – | – | – | – |
| NCI-H1944 | 0.71 | 0.677 | 0.594 | 0.52 | 0.483 | 0.431 | 0.378 | 0.411 | 0.376 | 0.267 | 0.246 | 0.238 | 0.273 | 0.228 | 0.74 | 0.573 | 0.429 | 0.479 | 0.468 |
| NCI-H1299 | 1.04 | 1.03 | 1.03 | 0.697 | – | – | – | – | – | – | – | – | – | – | – | – | – | – | – |
| EPLC-272H | 0.749 | 0.656 | 0.58 | 0.66 | 0.284 | 0.294 | 0.281 | 0.292 | 0.3 | 0.339 | 0.391 | 0.311 | 0.452 | 0.336 | 0.192 | 0.188 | 0.229 | 0.318 | 0.225 |
| NCI-H3122 | 0.551 | 0.492 | 0.353 | 0.366 | 1.09 | 0.979 | 0.983 | 0.871 | 0.909 | 0.422 | 0.565 | 0.357 | 0.392 | 0.405 | 1.07 | 0.997 | 0.909 | 0.954 | 1.03 |
| NCI-H2085 | 0.884 | 0.742 | 0.796 | 0.873 | 0.838 | 0.769 | 0.707 | 0.746 | 0.53 | 0.833 | 0.77 | 0.757 | 0.761 | 0.815 | 0.802 | 1.02 | 0.924 | 0.962 | 0.916 |
| COR-L23 | 0.91 | 0.825 | 0.793 | 0.654 | 0.661 | 0.839 | 0.713 | 0.687 | 0.696 | 0.206 | 0.217 | 0.231 | 0.16 | 0.182 | – | – | – | – | – |
| NCI-H2228 | 0.72 | 0.608 | 0.416 | 0.411 | 0.423 | 0.545 | 0.62 | 0.546 | 0.396 | 0.251 | 0.313 | 0.288 | 0.246 | 0.25 | – | – | – | – | – |
| COR-L 105 | 1.29 | 0.746 | 0.767 | 0.6 | 0.71 | 0.737 | 0.552 | 0.707 | 0.73 | 0.274 | 0.397 | 0.321 | 0.32 | 0.335 | – | – | – | – | – |
| NCI-H1563 | 0.969 | 0.838 | 0.964 | 0.877 | 0.836 | 0.776 | 0.747 | 0.773 | 0.707 | – | – | – | – | – | – | – | – | – | – |
| NCI-H2023 | 0.592 | 0.429 | 0.471 | 0.547 | 0.44 | 0.363 | 0.313 | 0.427 | 0.312 | 0.328 | 0.407 | 0.392 | 0.393 | 0.218 | – | – | – | – | – |
| NCI-H1792 | 0.684 | 0.603 | 0.485 | 0.386 | 0.695 | 0.751 | 0.603 | 0.638 | 0.721 | – | – | – | – | – | 0.58 | 0.698 | 0.703 | 0.608 | 0.565 |
| IA-LM | 0.431 | 0.237 | 0.216 | 0.191 | – | – | – | – | – | – | – | – | – | – | – | – | – | – | – |
| ChaGo-K-1 | – | – | – | – | 0.716 | 0.634 | 0.516 | 0.552 | 0.479 | 0.236 | 0.218 | 0.224 | 0.208 | 0.227 | 0.884 | 0.854 | 0.849 | 0.888 | 0.85 |
| NCI-H1650 | – | – | – | – | 0.531 | 0.856 | 0.606 | 0.783 | 0.529 | 0.456 | 0.409 | 0.427 | 0.406 | 0.299 | – | – | – | – | – |
| NCI-H1648 | – | – | – | – | 0.287 | 0.24 | 0.313 | 0.265 | 0.256 | 0.235 | 0.574 | 0.54 | 0.471 | 0.415 | – | 0.69 | 0.649 | 0.758 | 0.527 |
| NCI-H1703 | 0.368 | 0.25 | 0.327 | 0.314 | – | – | – | – | – | – | – | – | – | – | 0.157 | 0.136 | 0.122 | 0.129 | 0.124 |
| A549 | 0.675 | 0.438 | 0.311 | 0.296 | – | – | – | – | – | – | – | – | – | – | – | – | – | – | – |
| NCI-H522 | – | – | – | – | 0.631 | 0.759 | 0.684 | 0.824 | 0.6 | 0.605 | 0.481 | 0.599 | 0.555 | 0.437 | 1.01 | 0.769 | 0.85 | 0.923 | 0.689 |
| NCI-H1623 | – | – | – | – | 0.419 | 0.424 | 0.414 | 0.444 | 0.424 | 0.444 | 0.506 | 0.411 | 0.411 | 0.403 | – | – | – | – | – |
| SW 900 | – | – | – | – | 0.641 | 0.548 | 0.484 | 0.525 | 0.604 | 0.401 | 0.55 | 0.476 | 0.65 | 0.386 | 0.538 | 0.696 | 0.59 | 0.715 | 0.668 |
| EBC-1 | 0.779 | 0.591 | 0.556 | 0.361 | – | – | – | – | – | – | – | – | – | – | – | – | – | – | – |
